For orientation: GI50 means the concentration giving 50% growth inhibition.

Structures are written as SMILES.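 Results reflect a 48-hour exposure of cells in 96-well plates to compound at five concentrations. The concentration for 50% growth inhibition is given as GI50.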 Calls of active or inactive are those of the source. Cut-off read from the data, not from the text of the source: active = GI50 up to about 1.1 µM and inactive = higher.

Data on 16 compounds can be found in ChEMBL document CHEMBL1201862, “PubChem BioAssay data set” (2004).

Some test systems named below: M19-MEL; DMS-273; XF498; RXF 631; DLD-1; SNB-78; HOP-18; DMS-114; BT-549.
What all share (experiment): DTP human tumour cell line panel, 48 h

Take `Oc1cc(-c2ccc[nH]2)nc2cc3c(cc12)OCO3`: the GI50 in the experiment on M19-MEL was 39 µM (inactive); in the experiment on DMS-273 it was 32.2 µM (inactive); in the experiment with XF498, 21.1 µM (inactive); in the experiment on RXF 631 it was 47.5 µM (inactive); in the experiment on DLD-1 it was 34.4 µM (inactive).

On to `COc1ccc(C2C(C)C(=O)C(C)C(c3ccc(OC)cc3)N2N=O)cc1` (centres undefined), for which the GI50 is 121 µM (inactive) with SNB-78; > 750 µM (inactive) with M19-MEL; > 100 µM (inactive) in the experiment on HOP-18; > 514 µM (inactive) in the experiment with DMS-273; 166 µM (inactive) in the experiment with XF498; > 95.3 µM (inactive) with RXF 631. Moreover, the GI50 in the experiment with DLD-1 is > 1000 µM (inactive); with DMS-114 it was > 750 µM (inactive).

Consider `CSC(=N\c1ccccc1)/N=C(\SCc1ccccc1)N(C)C`, for which the GI50 was 1.63 µM (inactive) with SNB-78; 1.66 µM (inactive) in the experiment on M19-MEL; 0.774 µM (active) in the experiment on HOP-18; 0.59 µM (active) with DMS-273; 1.33 µM (inactive) in the experiment with XF498; 1.42 µM (inactive) in the experiment on BT-549. The GI50 is 1.38 µM (inactive) in the experiment with RXF 631 and 1.09 µM (active) in the experiment with DMS-114.

On to `CCCCCCCCCCCCCCCC(=O)OCC1OC(n2cc(F)c(=O)[nH]c2=O)C(NC(=O)N(CCCl)N=O)C(O)C1O` (centres undefined), for which the GI50 is 3.85 µM (inactive) with SNB-78; 2.82 µM (inactive) with M19-MEL; 16.4 µM (inactive) in the experiment on HOP-18; 0.343 µM (active) with DMS-273; 3.08 µM (inactive) in the experiment with RXF 631; 2.84 µM (inactive) in the experiment with DLD-1. Further, the GI50 in the experiment with DMS-114 was 1.12 µM (inactive).

For the compound `O=c1[nH]cc(OCC(F)(F)F)c(=O)[nH]1`, the GI50 in the experiment on SNB-78, in the experiment with M19-MEL, in the experiment with HOP-18, in the experiment with DMS-273, in the experiment with XF498 and in the experiment on RXF 631 was > 100 µM (inactive) in each case. Moreover, the GI50 in the experiment on DLD-1 and in the experiment with DMS-114 was > 100 µM (inactive) throughout.

For `COC1N(C2CC(O)C(CO)O2)C(=O)NC(=O)C1(F)Br` (centres undefined), the GI50 is > 50 µM (inactive) in the experiment with SNB-78; > 50 µM (inactive) in the experiment with HOP-18; 14.7 µM (inactive) in the experiment with DMS-273; 17.3 µM (inactive) in the experiment with XF498; 25 µM (inactive) with BT-549; 6.84 µM (inactive) in the experiment with RXF 631. In addition, the figures for the GI50 in the experiment on DLD-1 and with DMS-114 were 16.5 µM (inactive) and 43.9 µM (inactive), respectively.

`Cc1cc(-c2c(F)cc3c4nn([C@H]5CC[C@@H](N(C)C)CC5)c(=O)c-4cn(C4CC4)c3c2F)cc(C)n1`: the GI50 was 0.28 µM (active) in the experiment with SNB-78; 0.0891 µM (active) with M19-MEL; 0.197 µM (active) with HOP-18; 0.00594 µM (active) with DMS-273; 0.318 µM (active) in the experiment with XF498; 0.479 µM (active) in the experiment on BT-549. For the same compound, the GI50 in the experiment on RXF 631 was 0.0355 µM (active); with DLD-1 it was 0.0428 µM (active); in the experiment on DMS-114 it was 0.024 µM (active).

`CC(=O)NNc1nc(C)c(C(=O)NNC(=O)C(=O)Nc2ccc(C)cc2[N+](=O)[O-])s1`: the GI50 in the experiment with SNB-78 was > 100 µM (inactive); with M19-MEL, 60.4 µM (inactive); in the experiment on HOP-18 it was > 100 µM (inactive); in the experiment with DMS-273, > 100 µM (inactive); in the experiment with RXF 631 it was > 100 µM (inactive); in the experiment with DLD-1 it was > 100 µM (inactive). Further, the GI50 in the experiment on DMS-114 was > 100 µM (inactive).

Regarding `CC(C)C12C=CC(C)(CC1)n1c(=O)c3cc4ccccc4cc3c(=O)n12` (centres undefined), the GI50 in the experiment on SNB-78 was > 100 µM (inactive); in the experiment with M19-MEL, 66.8 µM (inactive); in the experiment with DMS-273 it was 40.6 µM (inactive); in the experiment on XF498, 26.4 µM (inactive); in the experiment with RXF 631 it was 54.3 µM (inactive); with DLD-1 it was 38.7 µM (inactive). In the experiment with DMS-114, the GI50 was 41.9 µM (inactive).

For the compound `C=CCCCCCCCCC(=O)NS(=O)(=O)c1ccccc1`, the GI50 with SNB-78 was > 100 µM (inactive); in the experiment with M19-MEL, > 100 µM (inactive); in the experiment with HOP-18 it was 40.9 µM (inactive); in the experiment with DMS-273, 88.1 µM (inactive); with XF498, > 100 µM (inactive); in the experiment on RXF 631, > 100 µM (inactive). The GI50 in the experiment with DLD-1 is 96.6 µM (inactive); with DMS-114, > 100 µM (inactive).

Consider `COc1ccc(C=O)c([N+](=O)[O-])c1`, for which the GI50 was 42.4 µM (inactive) in the experiment on SNB-78; 63.5 µM (inactive) in the experiment on M19-MEL; 38.8 µM (inactive) in the experiment on HOP-18; 25.4 µM (inactive) in the experiment on DMS-273; 13.3 µM (inactive) in the experiment with XF498; 57.7 µM (inactive) in the experiment on RXF 631. In addition, the GI50 with DMS-114 is 24 µM (inactive).

Consider `CCOC(=O)C1S/C(=N/c2ccc(Cl)cc2C)N=C1C` (centres undefined), for which the GI50 with SNB-78 was 20.4 µM (inactive); in the experiment on M19-MEL, 20 µM (inactive); in the experiment on HOP-18, 45.8 µM (inactive); with DMS-273, 24.2 µM (inactive); with XF498 it was 20.9 µM (inactive); with RXF 631 it was 21.1 µM (inactive). For the same compound, the GI50 in the experiment with DLD-1 was 15.1 µM (inactive); in the experiment on DMS-114, 12.9 µM (inactive).

For the compound `C[C@@H]1[C@H](c2ccccc2)O[B-]2(c3ccc(Br)cc3)OC(=O)C[N+]12C` (some centres undefined), the GI50 with SNB-78 is 35.4 µM (inactive); in the experiment with M19-MEL, > 100 µM (inactive); with HOP-18, > 100 µM (inactive); in the experiment on XF498 it was 97.1 µM (inactive); in the experiment on RXF 631 it was > 100 µM (inactive); in the experiment on DLD-1 it was > 100 µM (inactive). Moreover, the GI50 in the experiment on DMS-114 was > 100 µM (inactive).

As to `COc1ccc(C2Oc3c(cc(O)c(OC)c3C)[C@@H]2C)cc1OC` (some centres undefined), the GI50 in the experiment with SNB-78 is 69.8 µM (inactive); with M19-MEL, 86.1 µM (inactive); with HOP-18, > 100 µM (inactive); in the experiment on DMS-273 it was 47.6 µM (inactive); in the experiment with XF498, 51.8 µM (inactive); with RXF 631, > 100 µM (inactive). The GI50 in the experiment on DLD-1 was > 100 µM (inactive); in the experiment with DMS-114, 33 µM (inactive).

As for `CC1(CO)OC1COCc1ccccc1` (centres undefined), the GI50 in the experiment on SNB-78, in the experiment on DMS-273, with XF498, in the experiment on RXF 631, in the experiment on DLD-1 and in the experiment with DMS-114 was > 100 µM (inactive) in each case.

Regarding `C=CCc1cc(-c2cc(CC=C)c(O)c(CN(CC)CC)c2)cc(CN(CC)CC)c1O`, the GI50 is > 100 µM (inactive) in the experiment on SNB-78; 18.3 µM (inactive) with M19-MEL; > 100 µM (inactive) in the experiment on HOP-18; 32.2 µM (inactive) in the experiment with DMS-273; > 49.2 µM (inactive) in the experiment on BT-549; 14.6 µM (inactive) in the experiment on RXF 631. In addition, the GI50 with DLD-1 was 70.1 µM (inactive); in the experiment on DMS-114 it was > 52.6 µM (inactive).
